The values that follow come from US20200010482A1, “INHIBITORS OF BETA SECRETASE” (Janssen Pharmaceutica NV, priority 2017, published 2020).

The target in one test is T1, BACE1 (Homo sapiens, UniProt P56817).
T1 construct: recombinant BACE1 protein in a final concentration of 0.04 μg/ml
As to the kind of experiment: BACE1 biochemical FRET based assay. The note with it: recombinant BACE1 0.04 μg/ml, 20 μM substrate, 450 min, pH 5.0; for IC50: read-out: BIOCHEMICAL FRET BASED ASSAY pIC50 (converted). The text has this: (§1) This assay is a Fluorescence Resonance Energy Transfer Assay (FRET) based assay. The substrate for this assay is an APP derived 13 amino acids peptide that contains the ‘Swedish’ Lys-Met/Asn-Leu mutation of the amyloid precursor protein (APP) beta-secretase cleavage site. This substrate also contains two fluorophores: (7-methoxycoumarin-4-yl) acetic acid (Mca) is a fluorescent donor with excitation wavelength at 320 nm and emission at 405 nm and 2,4-Dinitrophenyl (Dnp) is a proprietary quencher acceptor. […] Upon cleavage by BACE1, the fluorophore Mca is separated from the quenching group Dnp, restoring the full fluorescence yield of the donor. The increase in fluorescence is linearly related to the rate of proteolysis.
Briefly in a 384-well format recombinant BACE1 protein in a final concentration of 0.04 μg/ml is incubated for 450 minutes at room temperature with 20 μM substrate in incubation buffer (50 mM Citrate buffer pH 5.0, 0.05% PEG) in the presence of compound or DMSO. Next the amount of proteolysis is directly measured by fluorescence measurement (excitation at 320 nm and emission at 405 nm) at different incubation times (0, 30, 60, 90, 120 and 450 min). For every experiment a time curve (every 30 min between 0 min and 120 min) is used to determine the time where we find the lowest basal signal of the high control. The signal at this time (Tx) is used to subtract from the signal at 450 min. Results are expressed in RFU, as difference between T450 and Tx.
(§2) A best-fit curve is fitted by a minimum sum of squares method to the plot of % Controlmin versus compound concentration. From this an IC50 value (inhibitory concentration causing 50% inhibition of activity) can be obtained. • LC=Median of the low control values=Low control: Reaction without enzyme • HC=Median of the High control values=High Control: Reaction with enzyme
(§3) % Effect=100−[(sample−LC)/(HC−LC)*100]
(§4) % Control=(sample/HC)*100
(§5) % Controlmin=(sample−LC)/(HC−LC)*100

The subject of test [1] is Abeta 1-42 produced and secreted by SKNBE2 cells expressing hAPP695. Put plainly: Cellular αLisa assay in SKNBE2 cells, Abeta 1-42. The note with it: SKNBE2 cells expressing hAPP695, 18 hours incubation; for IC50: Homo sapiens, SKNBE2, 18 h, read-out: CELLULAR αLISA ASSAY IN SKNBE2 CELLS ABETA 42 PIC50 (converted). The class given is cell-based, human. The procedure:
In two αLisa assays the levels of Abeta total and Abeta 1-42 produced and secreted into the medium of human neuroblastoma SKNBE2 cells are quantified. The assay is based on the human neuroblastoma SKNBE2 expressing the wild type Amyloid Precursor Protein (hAPP695). The compounds are diluted and added to these cells, incubated for 18 hours and then measurements of Abeta 1-42 and Abeta total are taken. Abeta total and Abeta 1-42 are measured by sandwich αLisa. αLisa is a sandwich assay using biotinylated antibody AbN/25 attached to streptavidin coated beads and antibody Ab4G8 or cAb42/26 conjugated acceptor beads for the detection of Abeta total and Abeta 1-42 respectively. In the presence of Abeta total or Abeta 1-42, the beads come into close proximity. The excitation of the donor beads provokes the release of singlet oxygen molecules that trigger a cascade of energy transfer in the acceptor beads, resulting in light emission. Light emission is measured after 1 hour incubation (excitation at […] and emission at 615 nm).
A best-fit curve is fitted by a minimum sum of squares method to the plot of % Controlmin versus compound concentration. From this an IC50 value (inhibitory concentration causing 50% inhibition of activity) can be obtained. • LC=Median of the low control values=Low control: cells preincubated without compound, without biotinylated Ab in the αLisa • HC=Median of the High control values=High Control: cells preincubated without compound
as §3, §4, §5

In the next test the target is T2, BACE2 (Homo sapiens, UniProt Q9Y5Z0).
T2 construct: recombinant BACE2 protein in a final concentration of 0.4 μg/ml
T2 sequence (Q9Y5Z0 63-518): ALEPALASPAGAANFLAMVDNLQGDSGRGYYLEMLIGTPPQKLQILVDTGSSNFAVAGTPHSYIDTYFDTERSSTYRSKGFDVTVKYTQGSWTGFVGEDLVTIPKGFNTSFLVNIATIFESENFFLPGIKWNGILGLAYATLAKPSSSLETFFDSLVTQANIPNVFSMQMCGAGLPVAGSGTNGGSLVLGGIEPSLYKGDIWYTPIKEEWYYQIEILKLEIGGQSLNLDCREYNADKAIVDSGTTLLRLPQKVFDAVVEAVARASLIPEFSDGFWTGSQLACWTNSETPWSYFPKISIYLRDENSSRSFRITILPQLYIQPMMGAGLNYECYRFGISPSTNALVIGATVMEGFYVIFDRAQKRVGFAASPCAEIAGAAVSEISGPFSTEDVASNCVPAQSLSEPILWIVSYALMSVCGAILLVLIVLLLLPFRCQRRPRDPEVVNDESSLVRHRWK
Put plainly: BACE2 biochemical FRET based assay. As to conditions: recombinant BACE2 0.4 μg/ml, 10 μM substrate, 450 min, pH 5.0; for IC50: read-out: BIOCHEMICAL FRET BASED ASSAY pIC50 (converted).
Text: as §1, with “assay” for “assay is an APP derived 13 amino acids peptide that”, “the beta-secretase,” for “BACE1,”
Briefly in a 384-well format recombinant BACE2 protein in a final concentration of 0.4 μg/ml is incubated for 450 minutes at room temperature with 10 μM substrate in incubation buffer (50 mM Citrate buffer pH 5.0, 0.05% PEG, no DMSO) in the absence or presence of compound. Next the amount of proteolysis is directly measured by fluorescence measurement at T=0 and T=450 (excitation at 320 nm and emission at 405 nm). Results are expressed in RFU (Relative Fluorescence Units), as difference between T450 and TO.
as §2, §3, §4, §5

T1 sequence (P56817 46-501): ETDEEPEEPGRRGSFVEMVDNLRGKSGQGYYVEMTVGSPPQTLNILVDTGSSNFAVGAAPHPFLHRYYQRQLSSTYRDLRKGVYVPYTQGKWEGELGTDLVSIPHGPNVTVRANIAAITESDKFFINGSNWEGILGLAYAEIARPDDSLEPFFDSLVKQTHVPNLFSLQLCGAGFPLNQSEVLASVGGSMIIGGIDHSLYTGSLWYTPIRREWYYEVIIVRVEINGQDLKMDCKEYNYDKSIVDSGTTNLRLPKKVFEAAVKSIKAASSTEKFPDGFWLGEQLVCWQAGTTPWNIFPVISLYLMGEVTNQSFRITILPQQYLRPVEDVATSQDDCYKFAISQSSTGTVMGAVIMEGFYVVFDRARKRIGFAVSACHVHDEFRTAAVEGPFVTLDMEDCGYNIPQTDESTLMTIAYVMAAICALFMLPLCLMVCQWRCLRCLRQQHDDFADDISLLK

With `CCOc1nccc2c1CC1(c3ccc(F)cc3F)N=C(N)SCC1C2` (racemic) [Compound 4], the IC50 on BACE1 was 166 nM; in test [1], 186 nM; at BACE2 it was 331 nM.
The matching figures for `COc1nccc2c1CC1(c3cc(Br)c(F)cc3F)N=C(N)SCC1C2` (racemic) [Compound 6]: 234 nM, 200 nM and 219 nM.
Turning to `COc1nccc2c1CC1(c3ccc(Cl)cc3F)N=C(N)SCC1C2` (racemic) [Compound 7], the IC50 was 145 nM on BACE1, 70.8 nM in test [1] and 155 nM at BACE2.
The matching figures for `COc1nccc2c1CC1(c3cc([N+](=O)[O-])c(F)cc3F)N=C(N)SCC1C2` (racemic) [Compound 8]: 219 nM, 135 nM and 537 nM.
Regarding `COc1nccc2c1CC1(c3cc(C#N)ccc3F)N=C(N)SCC1C2` (racemic) [Compound 9], the figures for the IC50 (on BACE1; in test [1]; at BACE2) were 132 nM, 20.9 nM and 219 nM, respectively.
The like results for `COc1nccc2c1CC1(c3cc(-c4cncnc4)ccc3F)N=C(N)SCC1C2` (racemic) [Compound 10] were, in that order, 35.5 nM, 8.51 nM and 457 nM.
The like results for `COc1nccc2c1CC1(c3cc(-c4cncnc4)c(F)cc3F)N=C(N)SCC1C2` (racemic) [Compound 11] were, in that order, 21.9 nM, 2.95 nM and 219 nM.
The like results for `COc1nccc2c1CC1(c3cc(-c4cncc(C#N)c4)ccc3F)N=C(N)SCC1C2` (racemic) [Compound 12] were, in that order, 91.2 nM, 22.4 nM and 251 nM.
`COCC(C)NCc1ccc(F)c(C23Cc4c(ccnc4OC)CC2CSC(N)=N3)c1` (racemic) [Compound 13]: the IC50 at BACE1 is 70.8 nM; in test [1], 1.45 nM; at BACE2, 39.8 nM.
With `COc1nccc2c1CC1(c3cc4c(cc3F)OCC(=O)N4)N=C(N)SCC1C2` (racemic) [Compound 15], the IC50 on BACE1 was 30.2 nM; in test [1] it was 17.4 nM; on BACE2, 115 nM.
`COc1ncc(Br)c2c1CC1(c3cc(Br)c(F)cc3F)N=C(N)SCC1C2` (racemic) [Compound 19]: the IC50 was 162 nM at BACE1, 417 nM in test [1] and 282 nM on BACE2.
On to `COc1ncc(-c2cnccc2C)c2c1CC1(c3cc(O)ccc3F)N=C(N)SCC1C2` (racemic) [Compound 26], for which the IC50 is 25.1 nM on BACE1, 42.7 nM in test [1] and 479 nM at BACE2.
The matching figures for `COc1ncc(-c2cnccc2C)c2c1C[C@]1(c3cc(-c4cncnc4)ccc3F)N=C(N)SC[C@@H]1C2` (racemic) [Compound 27]: 11.7 nM, 3.89 nM and 3980 nM.
The matching figures for `COc1nccc2c1C[C@]1(c3ccc(F)cc3F)N=C(N)OC[C@@H]1C2` (racemic) [Compound 30]: 692 nM, 170 nM and 1150 nM.
Take `COc1ncc(-c2cccnc2)c2c1C[C@]1(c3ccc(F)cc3F)N=C(N)OC[C@@H]1C2` (racemic) [Compound 31]: the IC50 was 69.2 nM on BACE1, 8.91 nM in test [1] and 178 nM at BACE2.
Turning to `COc1ncc(-c2ccncc2C)c2c1CC1(c3ccc(F)cc3F)N=C(N)OCC1C2` (racemic) [Compound 32], the IC50 on BACE1 was 50.1 nM; in test [1], 7.24 nM; at BACE2, 1120 nM.
With `COCC(=O)Nc1cc(C23Cc4c(ccnc4OC)CC2CSC(N)=N3)c(F)cc1F` (single isomer, unassigned) [Compound 198], the IC50 was 1070 nM at BACE1 and 501 nM at BACE2. Also, in test [1], the “CELLULAR αLISA ASSAY IN SKNBE2 CELLS ABETA 42 PIC50” value is 6.58.
Consider `COCC(=O)Nc1cc(C23Cc4c(ccnc4OC)CC2CSC(N)=N3)c(F)cc1F` (single isomer, unassigned) [Compound 199], for which the IC50 on BACE1 is 16.2 nM; at BACE2, 7.08 nM. For the same molecule, the “CELLULAR αLISA ASSAY IN SKNBE2 CELLS ABETA 42 PIC50” value in test [1] is given as 8.36.
In the case of `COc1nccc2c1C[C@]1(c3cc(-c4cncc(C#N)c4)ccc3F)N=C(N)SC[C@@H]1C2` [Compound 37], the IC50 on BACE1 was 42.7 nM; in test [1] it was 17 nM; on BACE2, 123 nM.
For the molecule `COc1nccc2c1C[C@]1(c3cc(-c4cncnc4)ccc3F)N=C(N)SC[C@@H]1C2` [Compound 38], the IC50 at BACE1 is 15.5 nM; in test [1] it was 3.55 nM; at BACE2 it was 229 nM.
As to `COc1ncc(Br)c2c1C[C@]1(c3cc(O)ccc3F)N=C(N)SC[C@@H]1C2` [Compound 42], the IC50 at BACE1 is 27.5 nM; in test [1] it was 155 nM; at BACE2, 29.5 nM.
`COc1ncc(C2=CCOCC2)c2c1C[C@]1(c3ccc(F)cc3F)N=C(N)SC[C@@H]1C2` [Compound 46]: the “BIOCHEMICAL FRET BASED ASSAY pIC50” value at BACE1 is reported as 8.64; on BACE2 it was 8.44. Moreover, the “CELLULAR αLISA ASSAY IN SKNBE2 CELLS ABETA 42 PIC50” value in test [1] is 9.21.
In the case of `COc1ccncc1-c1cnc(OC)c2c1C[C@H]1CSC(N)=N[C@@]1(c1ccc(F)cc1F)C2` [Compound 103], the values for the IC50 (at BACE1; in test [1]; on BACE2) were 209 nM, 13.8 nM and 2570 nM, respectively.
As for `COc1ncc(-c2cncc(C)c2)c2c1C[C@]1(c3ccc(F)cc3F)N=C(N)SC[C@@H]1C2` [Compound 108], the figures for the IC50 (on BACE1; in test [1]) were 7.76 nM and 1.32 nM, respectively.
